“Also recorded” adds a separate entry of the source.

For data set [1], the system named is spontaneously hypertensive rat (SHR). As to the kind of experiment: Acute antihypertensive response (MAP, HR) to graded intravenous doses in anesthetized SHR. The settings on record: for acute change in MAP and HR: graded intravenous doses (nitroxides 17-270 μmol/kg; SOD 34-540 U/kg). It counts as in vivo. As for the experimental part: Experiments were approved by the Georgetown University Animal Care and Use Committee. Male SHR weighing 250-350 g (Taconic, Germantown, N.Y.) were anesthetized with thiobutabarbital (Inactin; Sigma, St. Louis, Mo.) (10 mg/100 g) after halothane (Halocarbon Laboratories, River Edge, N.J.) induction. Rats received 0.9% NaCl at 2 ml/h IV up to the time of receiving drugs to maintain euvolemia. A femoral artery was cannulated with polyethelene (PE)-50 tubing connected to a digital blood pressure analyzer (Micro-Med, Louisville, Ky.). Animals were equilibrated for 45 min. Thereafter, a nitroxide (17 μmol/kg) was infused intravenously over 10 s. The mean arterial pressure (MAP) and heart rate (HR) were recorded over the first 5 min and at 10 and 15 min. This was followed by doses of 54, 72, 174, and 270 μmol/kg under similar conditions. The same protocol was followed with each nitroxide: T, 4-oxo-tempo (OT), 4-amino-tempo (AT), 3-carboxy-peroxyl (3-CTPY) (Aldrich, Milwaukee, Wis.), 3-carbomyl-proxyl (3-CP) (Sigma), and 4-trimethylammonium-2,2,6,6,-tetramethylpiperidine-1-oxyl iodide (CAT-1) (Molecular Probes, Eugene, Oreg.) (FIG. 3). Doses of bovine Cu/Zn SOD (MW 32,500; Oxis Research, Portland, Oreg.) were selected that had equivalent SOD mimetic activity in vitro to the doses of T used for intravenous studies: 34, 110, 140, 260, 350, and 540 U/kg. SOD injection followed a similar protocol to the nitroxides and was compared with vehicle-injected rats. Additional rats received injections of previously boiled SOD as a further control group. Six rats were studied in each group.
The mean±SE changes in MAP and HR were calculated from the individual dose-response relations. The responsiveness was the maximum effect, and the sensitivity was the expected dose for ED50. Data were analyzed by ANOVA with post hoc testing by the Dunnett test, where appropriate. Statistical significance was taken as P<0.05.

The subject of data set [2] is O2−. generated by xanthine plus xanthine oxidase. Description: Inhibition of O2−. generated by xanthine-xanthine oxidase in vitro (SOD mimetic activity, lucigenin chemiluminescence). In kind it is biochemical. To be noted: means ± SE.
Data set [3] has the same test system. The data set is described as above. In kind it is biochemical. To be noted: for Maximum inhibition, %: O2−. generated by xanthine-xanthine oxidase in vitro, means ± SE, 5 studies; for O2−. generated by a xanthine-xanthine oxidase reaction extinguished: tested in PBS at 10^−4 M. As for the experimental part: The SOD activities of Ns were evaluated in vitro for their efficacy in dampening O2^−. generated by xanthine (25 μmol/l) plus xanthine oxidase (9 IU/ml). Their lipid solubility was assessed by shaking the Ns in a 50:50 mixture of PBS (Ambion, Austin, Tex.) and chloroform (CHCl3; EM Science, Gibbstown, N.J.), taking an aliquot of the PBS phase, evaporating the CHCl3phase to dryness, reconstituting it in PBS, and assessing the SOD activities in the two solutions. O2^−. was assessed by chemiluminescence with 5 μM lucigenin (AutoLumatPlus LB 953; EG&G, Berthold, Germany). The reduction in the stable peak value for chemiluminescence for each N, relative to vehicle, defined the SOD mimetic activity.
SOD activity by the nitroxides was assessed in vitro (Table 1). […] The ratio of the activity that partitioned into CHCl3 compared with PBS was examined.

Another data set relates to cell membranes. The settings on record: cited from earlier work.
For data set [4] the following is noted: measured previously in the literature; cited from earlier work.
The test system of data set [5] is mesenteric resistance arteries (MRAs) from EC-SOD −/− and +/+ mice. As to the kind of experiment: Contraction of isolated mesenteric resistance arteries (myograph). The settings on record: vessels from EC-SOD −/− mice; bath addition, 20 min; tempol 10^−4 M, PEG-SOD 100 units·ml^−1, catalase 300 units·ml^−1. As for the experimental part: FIG. 19: Responses of mouse isolated mesenteric resistance vessles to endothelin-1: comparison of EC-SOD +/+ with −/−. (A) Contraction to endothelin-1, (B) Superoxide production with endothelin-1. Mean±SEM values (n=6-8 per group). Response to endothelin-1 in vessels incubated for 20 min with vehicle, tempol (10^−4 M), PEG-SOD (100 units·ml^−1), and catalase (300 units·ml^−1). Compared to vehicle, ***, p<0.005.
(§1) Reactive oxygen spice (ROS) and endothelin-1 (ET-1) contribute to angiotensin-induced hypertension. We used isolated mesenteric resistance arteries (MRAs) from EC-SOD knockout (−/−) mice (n=10) and EC-SOD wild type (+/+) mice (n=10), as a model to investigate the hypothesis that microvascular ET-1 and superoxide anion (O2.^−) interact to enhance contractility. Tension and O2.^− were quantitated in real time in dihydroethidium (DHE)-loaded MRAs in a myograph equipped with a dual-emission photon detection fluorescence system to measure ethidium (Eth): DHE ratio (E/D) as a direct readout of O2.^− activity. […] PEG-SOD normalized augmented ET-1 contraction (64±4% vs 71±3%; p=ns) and prevent an increase in E/D ratio in MRAs from −/− (0.6±0.5 vs 0.5±0.8, p=ns). In summary, ET-1 generates microvascular O2.^− that enhances its vasoconstrictive action.

For data set [6] the test system is unchanged. Description: Superoxide as ethidium:DHE ratio (E/D) in dihydroethidium-loaded mesenteric resistance arteries. To be noted: dihydroethidium-loaded vessels from EC-SOD −/− mice; tempol 10^−4 M, PEG-SOD 100 units·ml^−1, catalase 300 units·ml^−1.
Description: as §1
A current study contrasts the responses to endothelin-1 (ET-1) in mesenteric resistance vessels from EC-SOD (−/−) and (+/+) mice. […] Parallel studies of vascular superoxide in dihydroethidium-loaded vessels show enhanced conversion to ethidium, indicating enhanced superoxide formation, in vessels from EC-SOD −/−mice. […] We conclude that in the model system of SOD deficiency caused by gene deletion of EC-SOD in the mouse, tempol can correct enhanced contractions and enhanced oxidative stress. It is thereby envisioned as being effective in preventing hypertension and cardiovascular disease.

The test system of data set [7] is cremasteric microvessels in the anesthetized mouse. As to the kind of experiment: In vivo EDRF (acetylcholine-induced vasodilation) responses of cremasteric microvessels. To be noted: 10^−4 M tempol in superfusate; EC-SOD −/− mice and mice infused with Ang II 400 ng·kg^−1·min^−1 sc × 12 days. As for the experimental part: FIG. 18: In vivo EDRF responses of cremasteric vessels are impaired by EC-SOD knockout or prolonged angiotensin II infusion but are restored by superfusion of tempol. Mean±SEM (n=c6 per group). Ang II infusion at 400 ng·kg^−1·min^−1 sc×12 days. T, 10^−4 M tempol in superfusate. Basal diameter 39±0.4 μm (similar in each group). Compared to EC-SOD +/+; *, p<0.05. Compared to vehicle infusion: †, p<0.05. All effects of tempol, p<0.005.
Our current studies have shown that the SOD mimetic drug tempol, when superfused over cremasteric microvessels in the anesthetized mouse, increases that acetylcholine-induced vasodilation response. This effect of acetylcholine is reduced in the EC-SOD (−/−) mouse and in normal and EC-SOD (−/−) mice infused for 12 days with Ang II which causes oxidative stress that bioinactivates nitric oxide which is a mediator of this response. […] This is important since acetylcholine-induced vasodilation is a test of endothelium-dependent relaxation (EDR). Defects in EDR are related to oxidative inactivation of nitric oxide and underlie many CVD risk factors. Thus defects in EDR could be the focus for abnormal vascular responses and increased CVD events in subjects with the R213G SNIP of EC-SOD.

Take `CC1(C)CC(C(=O)O)C(C)(C)N1[O]` (centres unmarked) [Compound 3-CTPY, 3-carboxy-peroxyl]: the “acute change in MAP and HR” value in data set [1] was “ineffective; also recorded: did not”. Moreover, in data set [2], the “ED50, μmol/kg” value was “∞†”. Moreover, in data set [3], the “Maximum inhibition, %” value stood at 15 ± 3 % and the “O2−. generated by a xanthine-xanthine oxidase reaction extinguished” value is recorded as “significantly lower fraction”.
In the case of `CC1(C)CC(O)CC(C)(C)N1[O]` [T, 4-hydroxy-2,2,6,6-tetramethyl-1 piperidinyloxy], the permeation of cells result in the data set with cell membranes is “permeates cell membranes freely”. Further, the “redox midpoint potential E1/2” value in data set [4] is recorded as 800 mV. Also, the “effect on enhanced contractions to ET-1” value in data set [5] was “normalized”. Also, the “effect on enhanced superoxide formation with ET-1” value in data set [6] is listed as “normalized”. Further, in data set [1] (graded intravenous doses), the “maximal reduction in MAP (comparison between compounds)” value was “greater maximal fall in MAP with T than CAT-1; also recorded: greatest reductions in MAP”; the “time to maximum reductions in MAP and HR” value was not above 1 min. Also, the “acute change in MAP and HR” value in data set [1] is “decreased MAP and HR acutely”. Moreover, the “acetylcholine-induced vasodilation (EDRF) response” value in data set [7] is “restored to normal”. In data set [3], the “Maximum inhibition, %” value is 92 ± 1% and the “O2−. generated by a xanthine-xanthine oxidase reaction extinguished” value was found to be 92%.

Source of the values: patent US20080015224A1, “Nitroxide superoxide dismutase mimetics to treat extracellular superoxide dismutase deficiencies” (priority 2006, published 2008).
